In US12528801B2 (Givaudan SA, priority 2019, dated 2026):

Columns and labels:
[1] = tested on: trained group of panelists; test: Sensory studies in model dentifrice (trained panel, tooth brushing); assay type: in vivo, human; settings: 40 ppm in model unflavored dentifrice; for Cooling after 1 h: 1 h after brushing; for Cooling after 1 h / Max. cooling: panel-averaged score 0 to 10; for Time of max. cooling / Max. cooling: brushing with 1 g for 60 seconds; for Max. cooling: stock in propylene glycol (A) or benzyl alcohol (B)
Procedure: The compounds listed in Table 3 were dissolved at a concentration of 1 wt-% in propylene glycol^A or benzyl alcohol^B (respective solvents indicated in Table 3). These solutions were then dispersed in appropriate quantities to obtain the desired final concentration of 40 ppm (parts per million) of the test compound into a model, unflavored dentifrice, the formula of which is given below (ingredients obtained from the suppliers respectively indicated in parenthesis).
A trained group of panelists evaluated the dentifrice containing a compound of formula (I), by brushing their teeth with 1 g of the dentifrice using a toothbrush for 60 seconds, followed by spitting, without rinsing the mouth afterwards for the duration of the evaluation. Panelists evaluated and recorded the cooling performance as well as other sensorial and organoleptic attributes at different timepoints over a period of two hours. Cooling performance was rated on a scale from 0 to 10 with 0 being no effect and 10 being freezing. Scores were averaged for all panelists and the cooling intensity qualified as “none” (score of 0), “low” (score above 0, up to 1), “medium” (score above 1, up to 4) “strong” (score above 4, up to 8) and “freezing” (score above 8), which are summarized below in Table 3.

[2] = tested on: trained group of panelists; test: Sensory studies in aqueous solution (trained panel, mouth swill); assay type: in vivo, human; settings: 10 ppm in aqueous solution; for Time of max. cooling / Max. cooling: 20 mL swilled in the mouth for 60 seconds; for Max. cooling / Cooling after 1 h: panel-averaged cooling score, scale 0 to 10; for Cooling after 1 h: 1 h after swilling
Procedure: The compounds as listed below in Table 2 were dissolved at a concentration of 1 wt-% in propylene glycol. These solutions were then dispensed in appropriate quantities into deionized water containing 0.5 wt-% Poloxamer 407 (which is a hydrophilic non-ionic surfactant, e.g., commercially available from SigmaAldrich) and 0.25 wt-% Cremaphor® RH40 (obtained from BASF) as solubilizer, to obtain the desired final concentration of 10 ppm (parts per million) of the respective compound.
A trained group of panelists evaluated the aqueous solutions containing test compound by swilling 20 mL of the solution in the mouth for 60 seconds, followed by spitting, without rinsing the mouth afterwards for the duration of the evaluation. Panelists evaluated and recorded the cooling performance as well as other sensorial and organoleptic attributes at different timepoints over a period of two hours. Cooling performance was rated on a scale from 0 to 10 with 0 being no effect and 10 being freezing. Scores were averaged for all panelists and the cooling intensity qualified as “none” (score of 0), “low” (score above 0, up to 1), “medium” (score above 1, up to 4) “strong” (score above 4, up to 8) and “freezing” (score above 8), which are provided in Table 2.

hTRPM8 = molecular target: T1, hTRPM8 (Homo sapiens, UniProt Q7Z2W7); test: Assay on TRPM8 modulators: calcium imaging (Fluo-4, Flexstation) in HEK293 cell line stably expressing hTRPM8; assay type: cell-based; settings: HEK293 cells stably expressing hTRPM8; calcium influx, Fluo-4, Flexstation 3; sigmoidal dose-response fit
T1 construct: expressed in transfected cells
In short: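 HEK293 cells stably expressing hTRPM8 were loaded with Fluo-4 AM plus probenecid and kept in HEPES buffer, pH 7.4. Calcium influx to serially diluted compounds was recorded for 120 s. Maximal activation was referenced to solvent control and 31.6 μM menthol, with EC values from sigmoidal dose-response fits.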

T1 sequence (Q7Z2W7 whole entry): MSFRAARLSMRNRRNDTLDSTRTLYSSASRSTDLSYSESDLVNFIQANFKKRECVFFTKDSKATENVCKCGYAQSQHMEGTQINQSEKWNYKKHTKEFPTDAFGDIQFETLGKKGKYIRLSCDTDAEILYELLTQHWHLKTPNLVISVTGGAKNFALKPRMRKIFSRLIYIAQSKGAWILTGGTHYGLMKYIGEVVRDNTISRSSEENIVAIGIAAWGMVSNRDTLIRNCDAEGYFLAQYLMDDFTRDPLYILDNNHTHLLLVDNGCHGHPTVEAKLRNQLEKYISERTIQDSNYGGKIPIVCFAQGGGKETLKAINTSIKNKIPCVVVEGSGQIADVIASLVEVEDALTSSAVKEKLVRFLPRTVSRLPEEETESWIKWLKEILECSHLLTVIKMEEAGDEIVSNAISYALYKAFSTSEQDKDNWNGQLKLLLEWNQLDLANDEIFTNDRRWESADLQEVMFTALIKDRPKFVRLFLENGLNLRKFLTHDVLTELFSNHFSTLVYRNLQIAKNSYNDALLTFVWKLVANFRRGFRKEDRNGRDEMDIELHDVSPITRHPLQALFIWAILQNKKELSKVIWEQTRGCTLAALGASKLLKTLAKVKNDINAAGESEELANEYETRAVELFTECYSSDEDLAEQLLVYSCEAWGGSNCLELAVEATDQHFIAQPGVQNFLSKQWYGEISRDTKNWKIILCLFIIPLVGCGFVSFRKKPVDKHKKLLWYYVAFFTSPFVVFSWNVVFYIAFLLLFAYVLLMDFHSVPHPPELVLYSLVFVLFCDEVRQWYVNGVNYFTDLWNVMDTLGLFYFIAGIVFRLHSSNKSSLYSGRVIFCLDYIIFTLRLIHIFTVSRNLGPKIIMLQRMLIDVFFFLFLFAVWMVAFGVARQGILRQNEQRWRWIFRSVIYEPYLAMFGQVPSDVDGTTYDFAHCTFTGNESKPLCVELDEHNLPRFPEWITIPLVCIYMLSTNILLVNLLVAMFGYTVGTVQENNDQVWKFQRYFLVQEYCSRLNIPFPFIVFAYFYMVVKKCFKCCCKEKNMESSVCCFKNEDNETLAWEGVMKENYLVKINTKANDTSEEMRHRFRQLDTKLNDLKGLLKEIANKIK

| Compound | Cooling after 1 h [1] | Time of max. cooling [1] [min] | Max. cooling [1] | Time of max. cooling [2] [min] | Max. cooling [2] | Cooling after 1 h [2] | EC50 (hTRPM8) [nM] |
| --- | --- | --- | --- | --- | --- | --- | --- |
| CS[C@H](C)C(=O)N1CCCC[C@@H]1c1ncc(-c2ccc(C)cc2)[nH]1 [Compound 11, (R)-2-(methylthio)-1-((R)-2-(5-(p-tolyl)-1H-imidazol-2-yl)piperidin-1-yl)propan-1-one] | M (M = medium) | 20 | S (S = Strong) | 10 | S (S = Strong) | M (M = medium) | < 50 |
| CCSC(C)C(=O)N1CCCCC1c1ncc(-c2ccc(C)cc2)[nH]1 (stereo not drawn) [Compound 95, 2-(ethylthio)-1-(2-(5-(p-toly)-1H-imidazol-2-yl)piperidin-1-yl)propan-1-one] | L (L = Low) | 5 | M (M = medium) | 10 | M (M = medium) | M (M = medium) | < 50 |
| CSC(C)C(=O)N1CCCCC1c1ncc(-c2ccc(C(F)(F)F)cc2)[nH]1 (stereo not drawn) [Compound 124, 2-(methylthio)-1-(2-(5-(4-(trifluoromethyl)phenyl)-1H-imidazol-2-yl)piperidin-1-yl)propan-1-one] | M (M = medium) | 30 | M (M = medium) | 20 | M (M = medium) | M (M = medium) | < 50 |
| CSC(C)C(=O)N1CCCCC1c1ncc(-c2ccc(C)s2)[nH]1 (stereo not drawn) [Compound 127, 2-(methylthio)-1-(2-(5-(5-methylthiophen-2-yl)-1H-imidazol-2-yl)piperidin-1-yl)propan-1-one] | – | – | – | 10 | S (S = Strong) | M (M = medium) | < 50 |
| CSC(C)C(=O)N1CCCCC1c1ncc(-c2ccc(C)cc2)[nH]1 (stereo not drawn) [Compound 130, 2-(methylthio)-1-(2-(5-(p-toly)-1H-imidazol-2-yl)piperidin-1-yl)propan-1-one] | M (M = medium) | 20 | S (S = Strong) | 20 | S (S = Strong) | M (M = medium) | < 50 |
| CSC(C)C(=O)N1CCCCC1c1ncc(-c2ccccc2)[nH]1 (stereo not drawn) [Compound 135, 2-(methylthio)-1-(2-(5-phenyl-1H-imidazol-2-yl)piperidin-1-yl)propan-1-one] | – | – | – | 10 | M (M = medium) | L (L = Low) | < 50 |
| C=CC(C)C(=O)N1CCCCC1c1ncc(-c2ccc(C)cc2)[nH]1 (stereo not drawn) [Compound 163, 2-methyl-1-(2-(5-(p-tolyl)-1H-imidazol-2-yl)piperidin-1-yl)but-3-en-1-one] | M (M = medium) | 5 | M (M = medium) | 10 | S (S = Strong) | M (M = medium) | < 50 |
| CCC(C)C(=O)N1CCCCC1c1ncc(-c2ccc(C)cc2)[nH]1 (stereo not drawn) [Compound 164, 2-methyl-1-(2-(5-(p-tolyl)-1H-imidazol-2-yl)piperidin-1-yl)butan-1-one] | M (M = medium) | 10 | S (S = Strong) | 10 | S (S = Strong) | M (M = medium) | < 50 |
| CC[C@H](C)C(=O)N1CCCCC1c1ncc(-c2ccc(C)cc2)[nH]1 (stereo partly drawn) [Compound 166, (2S)-2-methyl-1-(2-(5-(p-tolyl)-1H-imidazol-2-yl)piperidin-1-yl)butan-1-one] | M (M = medium) | 10 | S (S = Strong) | 20 | S (S = Strong) | M (M = medium) | < 50 |
| CCC(C)C(=O)N1CCCCC1c1ncc(-c2ccc(CC#N)cc2)[nH]1 (stereo not drawn) [Compound 197, 2-(4-(2-(1-(2-methylbutanoyl)piperidin-2-yl)-1H-imidazol-5-yl)phenyl)acetonitrile] | – | – | – | – | – | – | < 50 |
| CCC(C)C(=O)N1CCCCC1c1ncc(-c2ccc(C#N)cc2)[nH]1 (stereo not drawn) [Compound 198] | – | – | – | – | – | – | < 50 |
| Cc1ccc(-c2cnc(C3CCCCN3C(=O)C(C)C(C)C)[nH]2)cc1 (stereo not drawn) [Compound 199, 2,3-dimethyl-1-(2-(5-(p-tolyl)-1H-imidazol-2-yl)piperidin-1-yl)butan-1-one] | – | – | – | – | – | – | < 50 |
| CCC(C)C(=O)N1CCCCC1c1ncc(-c2ccccc2C)[nH]1 (stereo not drawn) [Compound 200, 2-methyl-1-(2-(5-(o-tolyl)-1H-imidazol-2-yl)piperidin-1-yl)butan-1-one] | – | – | – | – | – | – | 50 to 300 |
| CCC(C)C(=O)N1CCCCC1c1ncc(-c2cccc(C)c2)[nH]1 (stereo not drawn) [Compound 201, 2-methyl-1-(2-(5-(m-tolyl)-1H-imidazol-2-yl)piperidin-1-yl)butan-1-one] | – | – | – | – | – | – | 50 to 300 |
| CCC(C)C(=O)N1CCCCC1c1ncc(-c2ccc(CO)cc2)[nH]1 (stereo not drawn) [Compound 202, 1-(2-(5-(4-(hydroxymethyl)phenyl)-1H-imidazol-2-yl)piperidin-1-yl)-2-methylbutan-1-one] | – | – | – | – | – | – | 50 to 300 |
| Cc1ccc(-c2cnc(C3CCCCN3S(=O)(=O)C(C)C)[nH]2)cc1 (stereo not drawn) [Compound 203, 1-(isopropylsulfonyl)-2-(5-(p-tolyl)-1H-imidazol-2-yl)piperidine] | – | – | – | – | – | – | 300 to 1000 |
| CCC(C)S(=O)(=O)N1CCCCC1c1ncc(-c2ccc(C)cc2)[nH]1 (stereo not drawn) [Compound 204, 1-(sec-butylsulfonyl)-2-(5-(p-tolyl)-1H-imidazol-2-yl)piperidine] | – | – | – | – | – | – | 1000 to 35000 |
| CCC(C)C(=O)N1CCCCC1c1ncc(-c2ccc(C)s2)[nH]1 (stereo not drawn) [Compound 205, 2-methyl-1-(2-(5-(5-methylthiophen-2-yl)-1H-imidazol-2-yl)piperidin-1-yl)butan-1-one] | – | – | – | – | – | – | < 50 |
| CSC(C)C(=O)N1CCNCC1c1ncc(-c2ccc(C)cc2)[nH]1 (stereo not drawn) [Compound 206, 2-(methylthio)-1-(2-(5-(p-toly)-1H-imidazol-2-yl)piperazin-1-yl)propan-1-one] | – | – | – | – | – | – | < 50 |
| CSC(C)C(=O)N1CCCCC1c1nc(-c2ccc(C)cc2)co1 (stereo not drawn) [Compound 207, 2-(methylthio)-1-(2-(4-(p-tolyl)oxazol-2-yl)piperidin-1-yl)propan-1-one] | – | – | – | – | – | – | < 50 |
| CCC(C)C(=O)N1CCCCC1c1nc(-c2ccc(C)cc2)co1 (stereo not drawn) [Compound 208, 2-methyl-1-(2-(4-(p-tolyl)oxazol-2-yl)piperidin-1-yl)butan-1-one] | – | – | – | – | – | – | < 50 |
